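Protocol summary: plate cells (96-well), add compound at 5 concentrations, incubate 48 h, interpolate endpoints linearly. The concentration for full growth arrest is given as TGI.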 *1 amine or outer side, *2 acyl side, *3 side chain or, on linkers, in order; H or OH if unused. Where a SMILES comes first, the peptide text is derived from it. The star is where a group is joined. γGlu = O=C(O)[CH](CCC(=O)[*:2])N[*:1]; NHOH = ON*

These results are taken from PubChem BioAssay (NCI).

Assay in all cases: NCI-60 cell line screen, 48 h
The subject of assay [1] is OVCAR-4 ovarian.
The subject of assay [2] is MDA-MB-435.
Assay [3] relates to NCI/ADR-RES ovarian.
Assay [4] has as its system NCI-H23 lung.
Assay [5] concerns SF-295 CNS.
Assay [6] deals with SNB-19 CNS.
In assay [7] the test system is PC-3 prostate.
Assay [8] relates to OVCAR-3 ovarian.
Assay [9] relates to SF-539 CNS.
Assay [10] relates to HT29 colon.
The test system of assay [11] is HCT-15 colon.
Assay [12] has as its system MCF7 breast.
Assay [13] deals with M14 melanoma.
Assay [14] deals with SF-268 CNS.
Assay [15] deals with NCI-H226 lung.
The subject of assay [16] is ACHN renal.

For the compound `CCOP(=O)(OCC)/C(C#N)=C/c1nc[nH]c1C`, the TGI in [1], in assay [2], in assay [3], in assay [4], in assay [5] and in assay [6] was over 100 µM each time. Further, the TGI in [7], in assay [8], in assay [9], in [10], in assay [11] and in assay [12] was over 100 µM throughout. Also, the TGI in [13], in assay [14], in assay [15] and in assay [16] was over 100 µM throughout.
Turning to `CC(=O)N1N=C(c2ccccc2)NC(=O)C1c1cc(C)c(O)c(C)c1` (centres undefined), the TGI in assay [1] is 43.3 µM; in [2], over 100 µM; in assay [3] it was 47.7 µM; in [4], 64.1 µM; in assay [5], 43.8 µM; in assay [6] it was 50.9 µM. Moreover, the TGI was 79.7 µM in [7]; 36.7 µM in [8]; 40.3 µM in [9]; over 100 µM in assay [10]; over 100 µM in [11]; 43.6 µM in [12]. Further, the TGI in [13] was over 100 µM; in [14], 34.3 µM; in assay [15], 49.7 µM; in [16], 44 µM.
Turning to `c1ccc(CCCN2C3CCC2CN(CCOC(c2ccccc2)c2ccccc2)C3)cc1`, the TGI in assay [1] was determined as 28.4 µM; in [2] it was 29 µM; in [3] it was 21.3 µM; in [4], 23.6 µM; in [5] it was 26.9 µM; in assay [6], 28.3 µM. Further, the TGI in assay [7] is 19.4 µM; in assay [8], 30.4 µM; in [9], 22.4 µM; in [10], 14.8 µM; in [11] it was 18.1 µM; in assay [12], 25.8 µM. For the same compound, the TGI in [13] worked out at 17.3 µM; in assay [14] it was 29.2 µM; in assay [15], 25.9 µM; in assay [16] it was 26.2 µM.
Regarding `CCOC(=O)c1nc(SC)sc1NC(=O)c1ccc(OC)cc1`, the TGI in assay [1] was 89.9 µM; in assay [2], over 100 µM; in assay [3] it was over 100 µM; in [4], over 100 µM; in assay [5], over 100 µM; in assay [6], over 100 µM. For the same compound, the TGI in assay [7] is over 100 µM; in [8], over 100 µM; in [9], 34.9 µM; in assay [10], over 100 µM; in assay [11], over 100 µM; in assay [12], over 100 µM. Further, the TGI in [13], in assay [14], in [15] and in assay [16] was over 100 µM throughout.
On to `CCCCCCCCCCCCCOCCOCCOCCCCC(O)CCCCCCCCCC1=C[C@H](C)OC1=O` (some centres undefined), for which the TGI in [1] was determined as 71.9 µM; in assay [2], 57.1 µM; in [3], 41.4 µM; in [4] it was 60 µM; in assay [5], 29.2 µM; in assay [6], 43.7 µM. For the same compound, the TGI in assay [7] is 71.7 µM; in [8] it was 44.2 µM; in assay [9] it was 45.3 µM; in [10], 57.6 µM; in assay [11] it was 48 µM; in assay [12], over 100 µM. The TGI was over 100 µM in assay [13], 82.2 µM in assay [14], 38 µM in assay [15] and over 100 µM in assay [16].
As to `NC(=O)N/N=C(\Cc1cc(=O)oc2cc(O)ccc12)C(=O)Nc1ccccc1C(N)=O`, the TGI in assay [1], in assay [2], in assay [3], in [4], in assay [5] and in assay [6] was over 100 µM each time. In addition, the TGI in [7], in assay [8], in assay [9], in assay [10], in assay [11] and in assay [12] was over 100 µM in each case. The TGI in assay [13], in [14], in assay [15] and in assay [16] was over 100 µM in each case.
Regarding `CN(C)CC1CCC/C(=C\c2ccc(Cl)c(Cl)c2)C1=O` (centres undefined), the TGI in assay [1] came to 14.3 µM; in assay [2], 18.1 µM; in assay [3], 22.8 µM; in [4], 23.8 µM; in [5] it was 25.8 µM; in [6] it was 22.4 µM. Moreover, the TGI in assay [7] was over 33.5 µM; in assay [8], 13.4 µM; in assay [9], 12.5 µM; in assay [10] it was over 33.9 µM; in [11], 6.33 µM; in assay [12], 5.44 µM. Besides, the TGI in assay [13] is 11.2 µM; in assay [14], 8.88 µM; in assay [15] it was 24.5 µM; in assay [16] it was 15.1 µM.
Take `COc1ccc(OC)c([N+](=O)[O-])c1-c1nc2sc(Cl)cn2c1/C=N/N=C(N)N`: the TGI in assay [1] is 30.1 µM; in [2], 46.3 µM; in assay [3] it was over 100 µM; in assay [4], 60.7 µM; in assay [5], 50.2 µM; in assay [6], 43.4 µM. For the same compound, the TGI in assay [7] is 41.8 µM; in assay [8], 40.4 µM; in assay [9], 53.5 µM; in [10] it was 34 µM; in assay [11] it was over 100 µM; in [12], 46.3 µM. The TGI in [13] was over 100 µM; in [14] it was 64.8 µM; in assay [15], 44.1 µM; in assay [16], 86.3 µM.
With `NC(CCC(=O)NC(CCC(=O)NO)C(=O)NCC(=O)O)C(=O)O` (centres undefined) (γGlu-Glu(NHOH)-Gly-OH; configuration not given here), the TGI in [1], in assay [2], in [3], in [4], in assay [5] and in assay [6] was over 100 µM throughout. Also, the TGI in assay [7], in assay [8], in [9], in [10], in assay [11] and in assay [12] was over 100 µM each time. Besides, the TGI in assay [13], in assay [14], in [15] and in assay [16] was over 100 µM throughout.
As for `CCOC(=O)Cn1nnc2ccc(Nc3nc4ccccc4nc3C(=O)OCC)cc21`, the TGI in assay [1], in assay [2], in assay [3], in assay [4], in assay [5] and in assay [6] was over 100 µM throughout. Further, the TGI in [7] was over 100 µM; in assay [8] it was over 100 µM; in assay [9] it was 91.8 µM; in assay [10], over 100 µM; in assay [11], over 100 µM; in assay [12] it was over 100 µM. The TGI in [13], in assay [14], in [15] and in assay [16] was over 100 µM each time.
Regarding `COC(=O)[C@H](Cc1ccccc1)NC(=O)N(CCN(CCC#N)C(=O)N[C@H](C(=O)OC)C(C)C)c1ccccc1`, the TGI in assay [1], in assay [2], in assay [3], in assay [4], in assay [5] and in assay [6] was over 100 µM each time. Further, the TGI in assay [7], in assay [8], in [9], in assay [11], in assay [12] and in assay [13] was over 100 µM each time. Also, the TGI in assay [14], in [15] and in assay [16] was over 100 µM in each case.
Regarding `O=C(CN1CCCCC1)c1ccc2[nH]c(=O)oc2c1`, the TGI in assay [2], in [3], in assay [4], in assay [5], in [6] and in [7] was over 100 µM each time. Besides, the TGI in [8], in [9], in assay [10], in assay [11], in assay [12] and in assay [13] was over 100 µM throughout. Further, the TGI in [14], in assay [15] and in assay [16] was over 100 µM each time.
With `CCCCCCc1cc2cc(C(=O)Nc3nc(C45CC6CC(CC(C6)C4)C5)cs3)c(=O)oc2cc1O`, the TGI in [1] is 42.1 µM; in assay [2], 31.4 µM; in [3] it was 80.5 µM; in [4], 33.2 µM; in assay [5] it was 23.6 µM; in [6], 60.1 µM. The TGI in assay [7] was 34.3 µM; in assay [8] it was 39.4 µM; in assay [9] it was 38.6 µM; in assay [10] it was over 100 µM; in [11], 39.2 µM; in [12], over 100 µM. Moreover, the TGI is 63 µM in assay [14], 44.8 µM in [15] and 20.8 µM in [16].
Consider `OC1C2CN3CCN(C2)CC1(c1ccccc1)C3` (centres undefined), for which the TGI in assay [1], in assay [2], in [3], in [4], in assay [5] and in assay [6] was over 100 µM each time. Besides, the TGI in assay [7], in assay [8], in assay [9], in [10], in assay [12] and in [14] was over 100 µM in each case. For the same compound, the TGI in assay [15] and in assay [16] was over 100 µM throughout.
For `COc1nc2ncc([C@@H](OC(C)=O)[C@@H](COC(C)=O)OC(C)=O)nc2c(=O)n1C`, the TGI in assay [1], in [2], in assay [3], in assay [5], in assay [6] and in assay [7] was over 100 µM each time. Also, the TGI in [8], in assay [9], in assay [10], in assay [11], in [12] and in [13] was over 100 µM each time. Besides, the TGI in assay [14], in assay [15] and in [16] was over 100 µM throughout.
With `CC1=C[C@H](C[C@]2(C)c3c(c4c(C)cccc4oc3=O)O[C@@H]2C)OC1=O`, the TGI in assay [2], in assay [3], in assay [4], in assay [5], in assay [6] and in assay [7] was over 100 µM in each case. In addition, the TGI in assay [8], in assay [9], in assay [10], in [11], in assay [12] and in assay [13] was over 100 µM each time. Besides, the TGI is 63.4 µM in assay [14], over 100 µM in assay [15] and over 100 µM in [16].
As for `C[N+](C)(N)Cc1nc(-c2ccc(Cl)cc2)no1`, the TGI in [1], in [2], in assay [3], in assay [4], in assay [5] and in [6] was over 100 µM in each case. Further, the TGI in [7], in assay [8], in assay [9], in [10], in assay [11] and in [12] was over 100 µM each time. Further, the TGI in assay [13], in [15] and in assay [16] was over 100 µM each time.
As for `Cc1cc2c3c(c1)S(=O)(=O)c1cc(Cl)ccc1N3CCC2`, the TGI in assay [1], in assay [2], in [3], in [5], in assay [6] and in [7] was over 100 µM each time. Further, the TGI in assay [8], in assay [9], in assay [10], in [11], in [12] and in assay [13] was over 100 µM in each case. Also, the TGI in [14], in assay [15] and in assay [16] was over 100 µM each time.
